Assay results taken from patent US11510888B2, “Alleviating oxidative stress disorders with PUFA derivatives” (Retrotope, Inc., priority 2009, dated 2022).

Key:
[1] = system: coq null mutants (Q-less yeast); conditions: for protection in the yeast model: compared with D4-linolenic acid
Procedure: FIG. 3. […] Yeast coq3, coq7 and coq9 null mutants were prepared in the W303 yeast genetic background (WT). Yeast strains were grown in YPD medium (1% Bacto-yeast extract, 2% Bacto-peptone, 2% dextrose) and harvested while in log phase growth (OD600nm=0.1-1.0). Cells were washed twice with sterile water and resuspended in phosphate buffer (0.10 M sodium phosphate, pH 6.2, 0.2% dextrose) to an OD600nm=0.2. Samples were removed and 1:5 serial dilutions starting at 0.20 OD/ml were plated on YPD plate medium, to provide a zero time untreated control (shown in top left panel). The designated fatty acids were added to 200 uM final concentration to 20 ml of yeast in phosphate buffer. At 2 h, 4 h, and 16 h samples were removed, 1:5 serial dilutions prepared, and spotted onto YPD plate medium. Pictures were taken after 2 days of growth at 30° C.
FIG. 4. […] The fatty acid sensitive assay was performed as described in FIG. 6-1, except that 100 ul aliquots were removed at 1, 2, and 4 h and, following dilution, spread onto YPD plates. Pictures were taken after 2 to 2.5 days, and the number of colonies counted. Yeast strains include Wild type (circles), atp2 (triangles), or coq3 (squares); Fatty acid treatments include oleic C18:1 (solid line), linolenic, C18:3, n-3 (dashed line) or 11,11,14,14-D4-linolenic, C18:3, n-3, (dotted line).
Q-less yeast (coq mutants) provide an ideal system to assess in vivo autoxidation of fatty acids. Coenzyme Q (ubiquinone or Q) serves as a small lipophilic antioxidant as well as an electron shuttle in the respiratory chain of the mitochondrial inner membrane. Ten S. cerevisiae genes (COQ1-COQ10) are required for coenzyme Q biosynthesis and function, and the deletion of any results in respiratory deficiency (Tran U C, Clarke C F. Mitochondrion 2007; 75,S62).
A plate dilution assay can be used to assess PUFA sensitivity. This assay can be performed by spotting serial five-fold dilutions of aliquots onto YPD plate media (FIG. 3). The sensitivity of the different strains can be observed by visual inspection of the density of cells in each spot.

WT (W303) yeast = conditions: 200 μM, 4 h incubation
Procedure: Uptake of exogenously supplied fatty acids by yeast. WT (W303) yeast were harvested at log phase and incubated in the presence of 200 μM of the designated fatty acid for either 0 or 4 h.
Chromatograms of the yeast extracts subjected to GC-MS analyses. The different traces represent the 0 and 4 h incubations, respectively. The peak area of Each FAME (C18:1, C18:3 and D4-linolenic) was divided by the peak area of the C17:0 standard, quantified with a calibration curve.
Wild-type yeast were harvested during log phase growth and incubated in the presence of exogenously added fatty acid (for 0 or 4 h) in the presence of phosphate buffer plus 0.20% dextrose, as described for the fatty acid sensitivity assay. Cells were harvested, washed twice with 10 ml sterile water, and the yeast cell pellets were then processed by alkaline methanolysis as described above. The fatty acids are detected as methylesters (FAMEs) following GC-MS with C17:0 added as an internal standard (FIG. 6). The amounts of 18:3 and D4 detected after 4 h incubation were extrapolated from the calibration curve.

[2] = mouse, in vivo; cited from earlier work
[3] = system: coq null mutants (Q-less yeast); conditions: cited from earlier work; for sensitivity of Q-less yeast to fatty acid treatment: compared with wild-type parental strain
[4] = system: wild-type (strain W303-1B) cells; conditions: four hour treatment; cited from earlier work

Structure (SMILES): [2H]C([2H])(/C=C\C/C=C\CC)C/C=C\CCCCCCC(=O)O [11, 11-D2-linolenic acid, 11,11-Dideutero-cis,cis,cis-octadeca-8,12,15-trienoic acid]
- protection in the yeast model [1]: comparable protection

Structure (SMILES): [2H]C([2H])(/C=C\CC)/C=C\CC/C=C\CCCCCCC(=O)O [14, 14-D2-linolenic acid, 14,14-Dideutero-cis,cis,cis-octadeca-8,12,15-trienoic acid]
- protection in the yeast model [1]: comparable protection

Structure (SMILES): [2H]C([2H])(/C=C\CC)/C=C\C([2H])([2H])/C=C\CCCCCCCC(=O)O [D4-linolenic acid, 11,11,14,14-Tetradeutero-cis,cis,cis-9,12,15-Octadecatrienoic acid]
- incorporation of exogenously added fatty acid by yeast (WT (W303) yeast): avidly incorporate
- viability of cells compared with oleic acid treatment ([1]; quantitative colony counting): similar

Structure (SMILES): CCCCC/C=C\C/C=C\CCCCCCCC(=O)O [LA, (9Z,12Z)-9,12-Octadecadienoic acid]
- time at which higher-order PUFA concentration peaks in brain [2]: ≤ 8 h

Structure (SMILES): CCCCC/C=C\C/C=C\C/C=C\C/C=C\CCCC(=O)O [arachidonic acid]
- sensitivity of Q-less yeast to fatty acid treatment [3]: hypersensitive

Structure (SMILES): CC/C=C\C/C=C\C/C=C\CCCCCCCC(=O)O [linolenic acid, (9Z,12Z,15Z)-9,12,15-Octadecatrienoic acid]
- viable Q-less (coq2, coq3, and coq5) yeast mutants ([3]; following a four hour treatment): Less than 1%
- incorporation of exogenously added fatty acid by yeast (WT (W303) yeast): avidly incorporate
- wild-type cells remaining viable [4]: 70%
- viability / cell killing of coq mutants ([1]; 200 uM fatty acid, plate dilution assay): dramatic loss of viability
- reduction of viability of the coq mutants ([1]; quantitative colony counting, treatment for 4 h): more than 100 fold
- time at which higher-order PUFA concentration peaks in brain [2]: ≤ 8 h

Structure (SMILES): CCCCCCCC/C=C\CCCCCCCC(=O)O [oleic acid]
- sensitivity of Q-less yeast to fatty acid treatment [3]: behave the same as the wild-type parental strain
